Experimental data published in US9296745B2, “Diacylglycerol acyltransferase 2 inhibitors” (Pfizer Inc., priority 2012, dated 2016).

These molecules were tested against Human DGAT2 (hDGAT2) (Homo sapiens (Human), UniProt Q96PD7) (assay: In vitro DGAT2 assay, IC50 determination with hDGAT2 membrane fraction). Details: geometric mean; background for complete inhibition of DGAT2 obtained with 50 μM (1R,2R)-2-({3′-Fluoro-4′-[(6-fluoro-1,3-benzothiazol-2-yl)amino]-1,1′-biphenyl-4-yl}carbonyl)cyclopentanecarboxylic acid; read-out: DGAT2 IC50.
Assay type: biochemical
Description: Recombinant baculovirus for the FLAG-tagged hDGAT2 was generated in SF9 insect cells using Bac-to-Bac baculovirus expression system (Invitrogen) according to the manufacturer's protocol. For the expression of hDGAT2, SF9 cells (20 L) grown in Sf900II media were infected with hDGAT2 baculovirus at a multiplicity of infection of 1 in a Wave Bioreactor System 20/50P wave bag (GE Healthcare). After 40 hours of infection, the cells were then harvested by centrifugation at 5,000×g. The cell pellets were washed by resuspending in phosphate buffered saline (PBS) and collected by centrifugation at 5,000×g. The cell paste was flash frozen in liquid N2 and stored at −80° C. until needed. All operations below were at 4° C. unless otherwise noted. The cells were resuspended in lysis buffer (50 mM Tris-HCl, pH 8.0, 250 mM sucrose) including 1 mM ethylenediaminetetraacetic acid (EDTA) and the complete protease inhibitor cocktail (Roche Diagnostics) at a ratio of 3 ml buffer per 1 g cell paste. The cells were lysed by dounce homogenizer. The cell debris was removed by centrifugation at 1,000×g for 20 min, and the supernatant was centrifuged at 100,000×g for 1 hour. The resulting pellet was rinsed three times by filling ultracentrifuge tubes to the top with ice cold PBS before decanting. The washed pellet was resuspended with gentle stirring for 1 hour in lysis buffer containing 8 mM 3-[(3-cholamidopropyl)dimethylammonio]-1-propanesulfonate (CHAPS) at a ratio of 1 mL buffer per 1 g of original cell paste and centrifuged again at 100,000×g for 1 hour. The resulting supernatant (hDGAT2 membrane fraction) was aliquotted, flash frozen in liquid N2, and stored at −80° C. until use.
To 1 μL of compounds dissolved in 100% DMSO and spotted at the bottom of each well, 5 μL of 0.04% bovine serum albumin (BSA) (fatty acid free, Sigma Aldrich) was added and the mixture was incubated at room temperature for 20 minutes. To this mixture, 10 μL of hDGAT2 membrane fraction (0.01 mg/mL) diluted in 100 mM Hepes-NaOH, pH 7.4, 20 mM MgCl2 containing 200 nM methyl arachidonyl fluorophosphonate (Cayman Chemical; dried from ethyl acetate stock solution under argon gas and dissolved in DMSO as 5 mM stock) was added. […] The reaction mixtures were incubated at room temperature for 40 min and the reactions were stopped by addition of 5 μL of 1% H3PO4. After the addition of 45 μL MicroScint-E (Perkin-Elmer), plates were sealed with Top Seal-A covers (Perkin-Elmer) and phase partitioning of substrates and products was achieved using a HT-91100 microplate orbital shaker (Big Bear Automation, Santa Clara, Calif.). Plates were centrifuged at 2,000×g for 1 min in an Allegra 6R Centrifuge (Beckman Coulter) and then were sealed again with fresh covers before reading in a 1450 Microbeta Wallac Trilux Scintillation Counter (Perkin Elmer). DGAT2 activity was measured by quantifying the generated product [^14C]tridecanoylglycerol in the upper organic phase.
Inhibitors were tested at eleven different concentrations to generate IC50 values for each compound. […] Results are reported as geometric mean IC50 values.

Sequence of Human DGAT2 (hDGAT2) (Q96PD7 whole entry): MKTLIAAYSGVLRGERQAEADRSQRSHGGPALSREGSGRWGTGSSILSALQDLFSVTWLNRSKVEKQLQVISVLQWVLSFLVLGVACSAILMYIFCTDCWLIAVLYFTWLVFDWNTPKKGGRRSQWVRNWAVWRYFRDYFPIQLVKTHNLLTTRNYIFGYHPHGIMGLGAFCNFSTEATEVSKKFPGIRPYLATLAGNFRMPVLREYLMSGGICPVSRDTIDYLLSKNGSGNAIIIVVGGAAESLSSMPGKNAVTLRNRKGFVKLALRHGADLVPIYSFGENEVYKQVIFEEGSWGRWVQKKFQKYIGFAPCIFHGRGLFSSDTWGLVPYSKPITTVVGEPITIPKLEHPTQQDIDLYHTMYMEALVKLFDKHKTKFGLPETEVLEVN

SMILES | IC50 [nM]
O=C([C@@H]1CCCN(c2ccc3nc(-c4cncc(C5CC5)n4)[nH]c3n2)C1)N1CCOCC1 [Example 107, (R)-(1-(2-(6-Cyclopropylpyrazin-2-yl)-3H-imidazo[4,5-b]pyridin-5-yl)piperidin-3-yl)(morpholino)methanone] | 153
O=C([C@@H]1CCCN(c2ccc3nc(-c4nccc(C5CC5)n4)[nH]c3n2)C1)N1CCOCC1 [Example 149, (R)-(1-(2-(4-Cyclopropylpyrimidin-2-yl)-3H-imidazo[4,5-b]pyridin-5-yl)piperidin-3-yl)(morpholino)methanone] | 766
O=C([C@@H]1CCCN(c2ccc3nc(-c4cccc(OC(F)F)n4)[nH]c3n2)C1)N1CCCC1 [Example 121, (R)-(1-(2-(6-(Difluoromethoxy)pyridin-2-yl)-3H-imidazo[4,5-b]pyridin-5-yl)piperidin-3-yl)(pyrrolidin-1-yl)methanone] | 14.3
O=C([C@@H]1CCCN(c2ccc3nc(C4(n5cccn5)CCC4)[nH]c3n2)C1)N1CCCC1 [Example 80, (R)-(1-(2-(1-(1H-Pyrazol-1-yl)cyclobutyl)-3H-imidazo[4,5-b]pyridin-5-yl)piperidin-3-yl)(pyrrolidin-1-yl)methanone] | 1400
O=C([C@@H]1CCCN(c2ccc3nc(-c4cncc(Cl)c4)[nH]c3n2)C1)N1CCCC1 [Example 7, (R)-(1-(2-(5-Chloropyridin-3-yl)-3H-imidazo[4,5-b]pyridin-5-yl)piperidin-3-yl)(pyrrolidin-1-yl)methanone] | 16.3
O=C([C@@H]1CCCN(c2ccc3nc(C4(n5cc(C6CC6)cn5)CC4)[nH]c3n2)C1)N1CCCC1 [Example 77, (R)-(1-(2-(1-(4-Cyclopropyl-1H-pyrazol-1-yl)cyclopropyl)-3H-imidazo[4,5-b]pyridin-5-yl)piperidin-3-yl)(pyrrolidin-1-yl)methanone] | 107
O=C([C@@H]1CCCN(c2ccc3nc(-c4cc(C5CC5)ccn4)[nH]c3n2)C1)N1CCCC1 [Example 98, (R)-(1-(2-(4-Cyclopropylpyridin-2-yl)-3H-imidazo[4,5-b]pyridin-5-yl)piperidin-3-yl)(pyrrolidin-1-yl)methanone] | 94.4
O=C([C@@H]1CCCN(c2cnc3nc(-c4ccnc(C5CC5)n4)[nH]c3n2)C1)N1CCCC1 [Example 138, (R)-(1-(2-(2-Cyclopropylpyrimidin-4-yl)-1H-imidazo[4,5-b]pyrazin-6-yl)piperidin-3-yl)(pyrrolidin-1-yl)methanone] | 71.6
O=C([C@@H]1CCCN(c2ccc3nc(-c4nccc(C5CC5)n4)[nH]c3n2)C1)N1CCCC1 [Example 99, (R)-(1-(2-(4-Cyclopropylpyrimidin-2-yl)-3H-imidazo[4,5-b]pyridin-5-yl)piperidin-3-yl)(pyrrolidin-1-yl)methanone] | 72.5
CN(C)C(=O)[C@H]1CN(c2ccc3nc(-c4ccnc(C5CC5)n4)[nH]c3n2)CC(F)(F)C1 [Example 164, (R)-1-(2-(2-Cyclopropylpyrimidin-4-yl)-3H-imidazo[4,5-b]pyridin-5-yl)-5,5-difluoro-N,N-dimethylpiperidine-3-carboxamide] | 2800
COc1ccccc1C1(c2nc3ccc(N4CCC[C@@H](C(=O)N5CCCC5)C4)nc3[nH]2)CC1 [Example 92, (R)-(1-(2-(1-(2-Methoxyphenyl)cyclopropyl)-3H-imidazo[4,5-b]pyridin-5-yl)piperidin-3-yl)(pyrrolidin-1-yl)methanone] | 242
CN(C)C(=O)[C@@H]1CCCN(c2ccc3nc(-c4ccnc(C5CC5)n4)[nH]c3n2)C1 [Example 71, (R)-1-(2-(2-Cyclopropylpyrimidin-4-yl)-3H-imidazo[4,5-b]pyridin-5-yl)-N,N-dimethylpiperidine-3-carboxamide] | 1470
CN(C)C(=O)[C@@H]1CN(c2ccc3nc(-c4ccnc(C5CC5)n4)[nH]c3n2)CC(F)(F)C1 [Example 165, (S)-1-(2-(2-cyclopropylpyrimidin-4-yl)-3H-imidazo[4,5-b]pyridin-5-yl)-5,5-difluoro-N,N-dimethylpiperidine-3-carboxamide] | 16500
N#Cc1cncc(-c2nc3ccc(N4CCC[C@@H](C(=O)N5CCCC5)C4)nc3[nH]2)c1 [Example 16, (R)-5-(5-(3-(Pyrrolidine-1-carbonyl)piperidin-1-yl)-3H-imidazo[4,5-b]pyridin-2-yl)nicotinonitrile] | 102
O=C([C@@H]1CCCN(c2ccc3nc(C4(n5cc(Cl)cn5)CC4)[nH]c3n2)C1)N1CCOCC1 [Example 206, (R)-(1-(2-(1-(4-Chloro-1H-pyrazol-1-yl)cyclopropyl)-3H-imidazo[4,5-b]pyridin-5-yl)piperidin-3-yl)(morpholino)methanone] | 246
O=C([C@@H]1CCCN(c2ccc3nc(-c4cccc(OC(F)(F)F)c4)[nH]c3n2)C1)N1CCCC1 [Example 1, (R)-Pyrrolidin-1-yl(1-(2-(3-(trifluoromethoxy)phenyl)-3H-imidazo[4,5-b]pyridin-5-yl)piperidin-3-yl)methanone] | 1.7
O=C([C@@H]1CCCN(c2ccc3nc(-c4cccc(C5(O)CC5)n4)[nH]c3n2)C1)N1CCCC1 [Example 139, (R)-(1-(2-(6-(1-Hydroxycyclopropyl)pyridin-2-yl)-3H-imidazo[4,5-b]pyridin-5-yl)piperidin-3-yl)(pyrrolidin-1-yl)methanone] | 62.3
O=C([C@@H]1CCCN(c2ccc3nc(-c4ccnc(N5CCCC5)n4)[nH]c3n2)C1)N1CCCC1 [Example 10, (R)-Pyrrolidin-1-yl(1-(2-(2-(pyrrolidin-1-yl)pyrimidin-4-yl)-3H-imidazo[4,5-b]pyridin-5-yl)piperidin-3-yl)methanone] | 29.2
O=C([C@@H]1CCCN(c2ccc3nc(-c4cccc(F)c4)[nH]c3n2)C1)N1CCCC1 [Example 35, (R)-(1-(2-(3-Fluorophenyl)-3H-imidazo[4,5-b]pyridin-5-yl)piperidin-3-yl)(pyrrolidin-1-yl)methanone] | 21.2
O=C([C@@H]1CCCN(c2ccc3nc(-c4cccc(C5(O)COC5)n4)[nH]c3n2)C1)N1CCCC1 [Example 111, (R)-(1-(2-(6-(3-Hydroxyoxetan-3-yl)pyridin-2-yl)-3H-imidazo[4,5-b]pyridin-5-yl)piperidin-3-yl)(pyrrolidin-1-yl)methanone] | 697
O=C([C@@H]1CCCN(c2ccc3nc(-c4cncc(F)c4)[nH]c3n2)C1)N1CCCC1 [Example 113, (R)-(1-(2-(5-Fluoropyridin-3-yl)-3H-imidazo[4,5-b]pyridin-5-yl)piperidin-3-yl)(pyrrolidin-1-yl)methanone] | 137
CC(C)c1csc(-c2nc3ccc(N4CCC[C@@H](C(=O)N5CCCC5)C4)nc3[nH]2)n1 [Example 4, (R)-(1-(2-(4-Isopropylthiazol-2-yl)-3H-imidazo[4,5-b]pyridin-5-yl)piperidin-3-yl)(pyrrolidin-1-yl)methanone] | 6.64
O=C([C@@H]1CCCN(c2ccc3nc(C4(n5cc(Cl)cn5)CC4)[nH]c3n2)C1)N1CC=CC1 [Example 212, (R)-(1-(2-(1-(4-Chloro-1H-pyrazol-1-yl)cyclopropyl)-3H-imidazo[4,5-b]pyridin-5-yl)piperidin-3-yl)(2,5-dihydro-1H-pyrrol-1-yl)methanone] | 18.9
O=C([C@@H]1CCCN(c2ccc3nc(-c4cncc(C5CC5)n4)[nH]c3n2)C1)N1CCCC1 [Example 101, (R)-(1-(2-(6-Cyclopropylpyrazin-2-yl)-3H-imidazo[4,5-b]pyridin-5-yl)piperidin-3-yl)(pyrrolidin-1-yl)methanone] | 60.5
